“And” between values parts separate entries of the source, which are not always exact repeats. Equal entries are not always repeated. Structures can show the parent of a compound that is named as a salt. Where two headings read alike, the source gives them in different places.
Tests used:
[1] = system: ciliated respiratory tissue; details: 25% propylene glycol, 15% glycerol, 25% polyethylene glycol 400, 5% povidone in Locke-Ringer solution (WO2005/067893); cited from earlier work
[2] = Solubilities of constituents in non-aqueous solvents; format: physicochemical; details: organic solvent or mixture
Protocol: In a series of experiments, the solubilities of several constituents that may be used in the solution of the present invention were measured: […]

[3] = Stability experiments using ultraperformance liquid chromatography (UPLC); format: physicochemical
From the text: In stability experiments using ultraperformance liquid chromatography (UPLC) we confirmed that, in accordance with the scientific literature, apomorphine hydrochloride in aqueous solutions is not stable. It is quickly decomposed on storage.

[4] = water; also printed as 1% w/w; cited from earlier work
[5] = system: Parkinson's disease subjects; details: cited from earlier work; for time to peak benefit: nine Parkinson's disease subjects
[6] = system: ciliated respiratory tissue; assay: Effect on ciliary beat frequency (CBF) of ciliated tissue, rinsing with Locke-Ringer solution after 15 minutes; format: cell-based; details: for reversibility of effect on CBF: rinsing with LR after 15 minutes
Protocol: Disclosed are in vitro experiments, according to a previously published method (Merkus et al, 2001), describing the effect of four different solubilizers [25% propylene glycol, 15% glycerol, 25% polyethylene glycol 400 and 5% povidone], dissolved in a Locke-Ringer solution, on the ciliary beat frequency (CBF) of ciliated tissue. […] However, after rinsing with a pure Locke-Ringer solution, the effects on CBF appeared to be completely reversed within 20 minutes.
No ciliary beat frequency could be measured any more. […] Obviously the ciliated cells have been irreversibly damaged by the extreme hyperosmolar concentration of 50% propylene glycol. […] Thus, a nasal formulation containing a drug like apomorphine, dissolved in 50% or more (v/v) propylene glycol, is not a viable option, because it has to be administered in Parkinson's disease on a regular basis, for instance daily or several times per day or per week. On the other hand, such a high concentration of propylene glycol is needed to solubilise sufficient apomorphine (several mg per 0.1 ml) to treat a patient with off-periods in Parkinson's disease.
FIG. 1 is a graph showing the effect of 10% (v/v) propylene glycol (closed circles) or control (open circles) on ciliary beat frequency (CBF) of ciliated respiratory tissue. After 15 minutes contact with 10% (v/v) propylene glycol, tissue is rinsed with pure Locke-Ringer (LR) solution.
FIG. 2 is a graph showing the effect of 25% (v/v) propylene glycol (closed circles) or control (open circles) on ciliary beat frequency (CBF) of ciliated respiratory tissue. After 15 minutes contact with 25% (v/v) propylene glycol, tissue is rinsed with pure Locke-Ringer (LR) solution.
FIG. 3 is a graph showing the effect of 50% (v/v) propylene glycol (closed circles) or control (open circles) on ciliary beat frequency (CBF) of ciliated respiratory tissue. After 15 minutes contact with 50% (v/v) propylene glycol, tissue is rinsed with pure Locke-Ringer (LR) solution.
After 15 minutes contacts with 10% (v/v) propylene glycol, tissue is rinsed with pure Locke-Ringer (LR) solution.
After 15 minute contacts with 25% (v/v) propylene glycol, tissue is rinsed with pure Locke-Ringer (LR) solution.
After 15 minute contacts with 50% (v/v) propylene glycol, tissue is rinsed with pure Locke-Ringer (LR) solution.

[7] = solvent ethanol, read-out: solubility in ethanol
[8] = solvent propylene glycol, read-out: solubility in propylene glycol
[9] = 10% propylene glycol in Locke-Ringer solution, time 0 min
[10] = 10% propylene glycol in Locke-Ringer solution, time 5 min
[11] = 10% propylene glycol in Locke-Ringer solution, time 10 min
[12] = 10% propylene glycol in Locke-Ringer solution, time 15 min
[13] = 10% propylene glycol, time 20 min, after rinsing with LR at 15 min
[14] = 10% propylene glycol, time 30 min, after rinsing with LR at 15 min
[15] = 10% propylene glycol, time 40 min, after rinsing with LR at 15 min
[16] = 10% propylene glycol, time 50 min, after rinsing with LR at 15 min
[17] = 10% propylene glycol, time 60 min, after rinsing with LR at 15 min
[18] = 25% propylene glycol in Locke-Ringer solution, time 0 min
[19] = 25% propylene glycol in Locke-Ringer solution, time 15 min
[20] = 25% propylene glycol, time 20 min, after rinsing with LR at 15 min
[21] = 25% propylene glycol, time 30 min, after rinsing with LR at 15 min
[22] = 25% propylene glycol, time 40 min, after rinsing with LR at 15 min
[23] = 25% propylene glycol, time 50 min, after rinsing with LR at 15 min
[24] = 25% propylene glycol, time 60 min, after rinsing with LR at 15 min
[25] = 50% propylene glycol in Locke-Ringer solution, time 0 min
[26] = 50% propylene glycol in Locke-Ringer solution, time 5 min
[27] = 50% propylene glycol in Locke-Ringer solution, time 10 min
[28] = 50% propylene glycol in Locke-Ringer solution, time 15 min
[29] = 50% propylene glycol, time 20 min, after rinsing with LR at 15 min
[30] = 50% propylene glycol, time 30 min, after rinsing with LR at 15 min
[31] = 50% propylene glycol, time 40 min, after rinsing with LR at 15 min
[32] = 50% propylene glycol, time 50 min, after rinsing with LR at 15 min
[33] = 50% propylene glycol, time 60 min, after rinsing with LR at 15 min

OCC(O)CO [glycerol]
effect on CBF after 15 minutes [1]: strong decrease

CN1CCc2cccc3c2[C@H]1Cc1ccc(O)c(O)c1-3 [Apomorphine HCl]
solubility ([2]; solvent PEG 400, read-out: solubility in PEG 400): 15 mg/mL
solubility [2, 7]: 20 mg/mL
solubility ([2]; solvent glycerol, read-out: solubility in glycerol): 35 mg/mL
solubility [2, 8]: 80 mg/mL
stability on storage ([3]; aqueous solutions): not stable
stability on storage ([3]; non-aqueous solutions in propylene glycol, compared with aqueous): more stable

CN1CCc2cccc3c2[C@H]1Cc1ccc(O)c(O)c1-3 [apomorphine]
aqueous solubility [4]: about 10 mg/ml
time to peak benefit ([5]; 3 mg apomorphine subcutaneous injection): 21 min
time to peak benefit ([5]; 30 mg apomorphine sublingual tablets): > 40 min
stomatitis on chronic use ([5]; chronic use of the sublingual formulation): severe stomatitis in half the subjects

CC(O)CO (stereo not shown) [propylene glycol]
CBF (% of initial value), Mean [6, 9]: 100 % of initial value
CBF (% of initial value), single experiments [6, 9]: 100 % of initial value
CBF (% of initial value), Mean [6, 10]: 54 % of initial value
CBF (% of initial value), single experiments [6, 10]: 46 % of initial value and 58 % of initial value and 56 % of initial value and 51 % of initial value and 60 % of initial value
CBF (% of initial value), Mean [6, 11]: 54 % of initial value
CBF (% of initial value), single experiments [6, 11]: 50 % of initial value and 55 % of initial value and 63 % of initial value and 45 % of initial value
CBF (% of initial value), Mean [6, 12]: 50 % of initial value
CBF (% of initial value), single experiments [6, 12]: 57 % of initial value and 52 % of initial value and 43 % of initial value and 51 % of initial value and 45 % of initial value
reversibility of effect on CBF ([6]; 10% propylene glycol): reversible
CBF (% of initial value), Mean [6, 13]: 98 % of initial value
CBF (% of initial value), single experiments [6, 13]: 91 % of initial value and 92 % of initial value and 118 % of initial value and 110 % of initial value and 76 % of initial value
CBF (% of initial value), Mean [6, 14]: 97 % of initial value
CBF (% of initial value), single experiments [6, 14]: 94 % of initial value and 87 % of initial value and 110 % of initial value and 99 % of initial value and 93 % of initial value
CBF (% of initial value), Mean [6, 15]: 96 % of initial value
CBF (% of initial value), single experiments [6, 15]: 84 % of initial value and 91 % of initial value and 109 % of initial value and 102 % of initial value and 93 % of initial value
CBF (% of initial value), Mean [6, 16]: 95 % of initial value
CBF (% of initial value), single experiments [6, 16]: 82 % of initial value and 103 % of initial value and 106 % of initial value and 99 % of initial value and 86 % of initial value
CBF (% of initial value), Mean [6, 17]: 94 % of initial value
CBF (% of initial value), single experiments [6, 17]: 85 % of initial value and 94 % of initial value and 106 % of initial value and 99 % of initial value and 84 % of initial value
CBF (% of initial value), Mean [6, 18]: 100 % of initial value
CBF (% of initial value), single experiments [6, 18]: 100 % of initial value
CBF (% of initial value), Mean ([6]; 25% propylene glycol in Locke-Ringer solution, time 5 min): 11 % of initial value
CBF (% of initial value), Mean ([6]; 25% propylene glycol in Locke-Ringer solution, time 10 min): 3 % of initial value
CBF (% of initial value), Mean [6, 19]: 0 % of initial value
CBF (% of initial value), single experiments [6, 19]: 0 % of initial value
reversibility of effect on CBF ([6]; 25% propylene glycol): reversible
CBF (% of initial value), Mean [6, 20]: 80 % of initial value
CBF (% of initial value), single experiments [6, 20]: 86 % of initial value and 72 % of initial value and 85 % of initial value and 69 % of initial value and 87 % of initial value
CBF (% of initial value), Mean [6, 21]: 86 % of initial value
CBF (% of initial value), single experiments [6, 21]: 68 % of initial value and 101 % of initial value and 83 % of initial value and 89 % of initial value and 94 % of initial value
CBF (% of initial value), Mean [6, 22]: 97 % of initial value
CBF (% of initial value), single experiments [6, 22]: 97 % of initial value and 103 % of initial value and 99 % of initial value and 89 % of initial value and 94 % of initial value
CBF (% of initial value), Mean [6, 23]: 98 % of initial value
CBF (% of initial value), single experiments [6, 23]: 100 % of initial value and 102 % of initial value and 103 % of initial value and 91 % of initial value and 92 % of initial value
CBF (% of initial value), Mean [6, 24]: 97 % of initial value
CBF (% of initial value), single experiments [6, 24]: 102 % of initial value and 103 % of initial value and 94 % of initial value and 91 % of initial value
cilia activity ([6]; 50% (v/v) propylene glycol, after 5-15 minutes contact): completely arrested
CBF (% of initial value), Mean [6, 25]: 100 % of initial value
CBF (% of initial value), single experiments [6, 25]: 100 % of initial value
CBF (% of initial value), Mean [6, 26]: 0 % of initial value
CBF (% of initial value), single experiments [6, 26]: 0 % of initial value
CBF (% of initial value), Mean [6, 27]: 0 % of initial value
CBF (% of initial value), single experiments [6, 27]: 0 % of initial value
CBF (% of initial value), Mean [6, 28]: 0 % of initial value
CBF (% of initial value), single experiments [6, 28]: 0 % of initial value
reversibility of effect on CBF ([6]; 50% propylene glycol): not reversible
CBF (% of initial value), Mean [6, 29]: 0 % of initial value
CBF (% of initial value), single experiments [6, 29]: 0 % of initial value
CBF (% of initial value), Mean [6, 30]: 0 % of initial value
CBF (% of initial value), single experiments [6, 30]: 0 % of initial value
CBF (% of initial value), Mean [6, 31]: 0 % of initial value
CBF (% of initial value), single experiments [6, 31]: 0 % of initial value
CBF (% of initial value), Mean [6, 32]: 0 % of initial value
CBF (% of initial value), single experiments [6, 32]: 0 % of initial value
CBF (% of initial value), Mean [6, 33]: 0 % of initial value
CBF (% of initial value), single experiments [6, 33]: 0 % of initial value
effect on CBF after 15 minutes [1]: strong decrease

O=C1NS(=O)(=O)c2ccccc21.[Na] [Saccharin sodium]
solubility [2, 7]: 20 mg/mL
solubility [2, 8]: 250 mg/mL
